# Laboratory results from patent US7495024B2, “Phenylalkyl N-hydroxyureas for combating atherosclerotic plaque” (VIA Pharmaceuticals, Inc., priority 2006, dated 2009).
# Tests used:
# [1] = tested on: ApoE-deficient mice; test: Gross pathological evaluation of aortas with developed atherosclerotic plaque (Example 2, FIG. 2); assay type: in vivo; conditions: 28-week old ApoE-deficient mice, 28 days
# Description: In Examples 1 and 2 knockout mice deficient in producing the protein Apolipoprotein E [apoE] were used. ApoE-deficient mice are known to spontaneously develop atherosclerotic plaque at 12-16 weeks, which process is accelerated by feeding the mice a high fat diet. Because the atherosclerotic lesions found in these mice are histologically similar to those found in humans, the ApoE-deficient mice are used as a model for assessing the effects of a drug on atherosclerotic plaque in humans.
# Four week old female ApoE-deficient knockout mice were fed a high-fat diet set forth in Example 1 for a period of 24 weeks to allow atherosclerotic plaque to build-up. […]
# The entire treatment was carried out by administering the vehicle or the dosage to the mice once a day for 28 days. […] At terminal sacrifice, aortas were harvested from 16 mice in each of the treatment groups and grossly evaluated, selected tissue from the remaining 4 mice per group were evaluated grossly and fixed and processed for histopathological analysis and quantitative determination of plaque burden. […]
# [2] = tested on: patients suffering from Acute Coronary Syndrome (ACS); test: Randomized, double blind, placebo-controlled study in patients with Acute Coronary Syndrome: biomarkers and MDCT (Example 3); assay type: in vivo, human; conditions: 25, 50 or 100 mg per day oral
# Protocol: In this study the plaque levels were determined by use of Multidetector (64 slice coronary) Computerized Tomography (MDCT) scan indicative of such plaque in male and female patients suffering from Acute Coronary Syndrome (ACS). The efficacy of this treatment in reducing the effects of cardiovascular disease was determined by the use of biomarkers for this disease. […] At the end of the twenty-four week period the plaque in the patients is analyzed using the Multidetector (64 slice coronary) Computerized Tomography (MDCT) scan. […] Thus, the groups take the following matching capsules at each daily administration of the study medication: • Placebo: two placebo capsules • 25 mg dose: one placebo capsule plus one 25 mg capsule • 50 mg dose: 1 placebo capsule plus one 50 mg capsule • 100 mg dose: two 50 mg capsules The following baseline assessments in each of the patients are made prior to the study: history and complete physical examination; focused physical exam (for signs of bleeding disorder); 12-Lead ECG; measurement of inflammatory biomarkers (LTB4 (ex vivo) measured at trough; LTE4 urine; hsCRP; MPO; MCP1 (CCL2); M-CSF (CSF-1); MIP-2 (Cxcl2); osteopontin (Spp1)); hematology; chemistries; urinalysis; serum pregnancy test for women of childbearing potential; and 64-slice coronary MDCT imaging with contrast. […]
# [3] = tested on: ApoE-deficient mice; test: Histopathological and quantitative assessment of plaque/lesion area in aortic root and aorta (Example 2, FIG. 3); assay type: in vivo; conditions: 28-week old ApoE-deficient mice, 28 days
# Protocol: Four week old female ApoE-deficient knockout mice were fed a high-fat diet set forth in Example 1 for a period of 24 weeks to allow atherosclerotic plaque to build-up. The 28 week old ApoE-deficient mice were then randomized to receive vehicle (0.9% sterile saline administered at 5 mL/kg or compound X administered at two different doses, 10 mg/kg and 50 mg/kg, each in a volume of 5 mL/kg (from concentrations of […] respectively) daily for 28 consecutive days. Saline vehicle and compound X were all prepared fresh daily and administered orally with a 22G gavage syringe. Doses were adjusted based on most recently obtained body weight. The following two treatment groups were tested and compared: 1) the first treatment group consisted of 20 female mice treated only with saline and 20 female mice treated with 10 mg/kg of compound X and 2) the second treatment group consisted of 20 female mice treated with vehicle and 20 female mice treated with 50 mg/kg of compound X.
# The entire treatment was carried out by administering the vehicle or the dosage to the mice once a day for 28 days. […] At terminal sacrifice, aortas were harvested from 16 mice in each of the treatment groups and grossly evaluated, selected tissue from the remaining 4 mice per group were evaluated grossly and fixed and processed for histopathological analysis and quantitative determination of plaque burden.
# For quantitative assessment of the atherosclerotic process, in FIG. 2 and FIG. 3, the aortic tree of mice was prepared and described by Tabibiazar, Wagner, et al. Physiol Genomics 22(2): 213-226 (2005). The amount of plaque/lesion area in the aortic root, as well as the entire aorta, was measured. Percent lesion areas were calculated as a total lesion area divided by the total surface area. […]
# For the quantitative assessment of the atherosclerotic process in FIG. 3, the amount of plaque/lesion area in the aortic root as well as the entire aorta was measured. Percent lesion area was calculated at total lesion area divided by total surface area.
smiles,measurement,setting,value
"CC(C#Cc1ccc(Cc2ccc(F)cc2)s1)N(O)C(N)=O (stereo not shown) [compound X, N-[3-[5-[(4-fluorophenyl)methyl]-2-thienyl]-1-methyl-2-propynyl]-N-hydroxyurea]","atherosclerotic lesions in the proximal aorta, aortic arch, thoracic and abdominal aorta (gross pathological score)","[1]; 10 mg/kg/day or 50 mg/kg/day oral, vs vehicle",substantial reduction of atherosclerotic lesions
same,plaque burden in the proximal aorta and aortic arch compared to vehicle,[1]; 10 and 50 mg/kg/day oral,statistically significant reductions in plaque burden
same,"levels of inflammatory biomarkers for cardiovascular disease, percentage of patients vs placebo group",[2]; 12 weeks of dosing,decrease in the levels of inflammatory biomarkers
same,"density and/or plaque volume of coronary noncalcified plaque index lesions by 64-slice MDCT, percentage of patients vs placebo group",[2]; 24 weeks of dosing,a change in the density and/or plaque volume
same,atherosclerotic plaque formation in the aortic root (histopathological evaluation),"[3]; 10 mg/kg (p<0.07) and 50 mg/kg (p<0.001) oral, vs vehicle",dose dependent reduction of atherosclerotic plaque formation
same,reduction in mean lesion area compared to vehicle,"[3]; 50 mg/kg oral, statistically significant",approximately 45%
same,percent plaque lesion area in the aortas,"[3]; 10 and 50 mg/kg/day oral, vs vehicle, dose dependent",marked reduction of percent plaque lesion area
